Counter-ions that a name gives are not always drawn.
Tests used:
Format in all cases: biochemical
human LSD1(171-852) = biological target: T1, human LSD1(171-852) (Homo sapiens, UniProt O60341); experiment: Measurement of LSD1 inhibitory activity (time-resolved fluorescence, biotin-histone H3 mono methylated K4 peptide); details: read-out: LSD1 IC50 value
T1 construct: to give hLSD1(171-852) purified product; made in house; host or cells: Escherichia coli C43(DE3) pLysS
Protocol: When the turbidity reached 600 Klett units, the culture temperature was changed to 16° C., IPTG having a final concentration of 0.5 mM was added to induce expression, and the cells were cultured further for 21 hr. The culture medium was centrifuged at 9,000 g for 10 min, and Escherichia coli pellets were recovered.
Escherichia coli pellets in 9 L of the culture medium were suspended in 1340 mL of an extraction buffer (PBS, 5% (V/V) Glycerol), and 6700 units of Benzonase (Merck) were added. Using Branson ultrasonic disintegrator, the suspension was disrupted by ultrasonication for 3 min, and centrifuged at 33,000 g for 20 min, and the supernatant was recovered.
(5) Measurement of LSD1 Inhibitory Activity
After reaction at room temperature for 20 min, 1 mM 2-PCPA solution (5 μL) was added to terminate the reaction. A detection solution (800 mM potassium fluoride, 0.1% BSA) containing europium-labeled antihistone H3 antibody (Wako Pure Chemical Industries, Ltd.) and Streptavidin-XL665 (Cisbio) was further added by 5 μL, and the mixture was left standing for 60 min. A time-resolved fluorescence (excitation 320 nm, emission 615 nm, 665 nm) was measured by Envision (PerkinElmer). The LSD1 inhibitory rate (%) of the test compound was calculated by the following formula. inhibitory rate (%)=(1−(test compound count−blank)÷(control−blank)×100
The count of the LSD1 enzyme reaction mixture under compound non-addition conditions is indicated as control, and the count under compound non-addition and LSD1 enzyme non-addition conditions is indicated as blank.

MAO-A = biological target: T2, MAO-A (Homo sapiens, UniProt P21397); experiment: Measurement of MAO-A inhibitory activity (MAO-Glo Assay)
T2 construct: purchased Sigma-Aldrich Co. LLC
T2 sequence (P21397 1-527): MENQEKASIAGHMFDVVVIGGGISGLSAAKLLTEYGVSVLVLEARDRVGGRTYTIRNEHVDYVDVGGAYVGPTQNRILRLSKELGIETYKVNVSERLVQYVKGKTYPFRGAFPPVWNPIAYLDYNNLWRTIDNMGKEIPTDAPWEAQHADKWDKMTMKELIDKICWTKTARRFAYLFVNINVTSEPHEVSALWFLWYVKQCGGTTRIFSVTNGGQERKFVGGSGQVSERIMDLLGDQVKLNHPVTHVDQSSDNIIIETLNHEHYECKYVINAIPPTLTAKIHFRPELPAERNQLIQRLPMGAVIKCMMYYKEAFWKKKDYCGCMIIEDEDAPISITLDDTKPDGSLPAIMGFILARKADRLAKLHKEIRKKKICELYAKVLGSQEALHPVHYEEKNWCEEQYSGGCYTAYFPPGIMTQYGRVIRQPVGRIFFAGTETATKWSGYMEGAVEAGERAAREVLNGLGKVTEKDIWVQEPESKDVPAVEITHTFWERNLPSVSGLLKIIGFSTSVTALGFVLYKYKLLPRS
Protocol: (1) Measurement of MAO-A Inhibitory Activity
The MAO-A inhibitory activity evaluation described below followed the protocol of MAO-Glo (registered trademark) Assay of Promega KK.
(§1) A test compound dissolved in 4% DMSO was added by 12.5 μL to 25 μL reaction solution (100 mM HEPES (pH 7.5), 5% glycerol) containing 400 ng of MAO-A enzyme (Sigma-Aldrich Co. LLC.), and the mixture was reacted at room temperature for 10 min. MAO substrate (Promega KK) (160 μM) was added by 12.5 μL to start the reaction. After reaction at room temperature for 60 min, Luciferine detection reagent (Promega KK) (50 μL) was added to terminate the reaction. After reaction at room temperature for 20 min with stirring, the luminescence was measured by Envision (PerkinElmer). The MAO-A inhibitory rate (%) of the test compound was calculated by the following formula. inhibitory rate (%)=(1−(test compound count−blank)÷(control−blank)×100
The count of the MAO-A enzyme reaction mixture under compound non-addition conditions is indicated as control, and the count under compound non-addition and MAO-A enzyme non-addition conditions is indicated as blank.

MAO-B = biological target: T3, MAO-B (Homo sapiens, UniProt P27338); experiment: Measurement of MAO-B inhibitory activity (MAO-Glo Assay)
T3 construct: purchased Sigma-Aldrich Co. LLC
T3 sequence (P27338 1-520): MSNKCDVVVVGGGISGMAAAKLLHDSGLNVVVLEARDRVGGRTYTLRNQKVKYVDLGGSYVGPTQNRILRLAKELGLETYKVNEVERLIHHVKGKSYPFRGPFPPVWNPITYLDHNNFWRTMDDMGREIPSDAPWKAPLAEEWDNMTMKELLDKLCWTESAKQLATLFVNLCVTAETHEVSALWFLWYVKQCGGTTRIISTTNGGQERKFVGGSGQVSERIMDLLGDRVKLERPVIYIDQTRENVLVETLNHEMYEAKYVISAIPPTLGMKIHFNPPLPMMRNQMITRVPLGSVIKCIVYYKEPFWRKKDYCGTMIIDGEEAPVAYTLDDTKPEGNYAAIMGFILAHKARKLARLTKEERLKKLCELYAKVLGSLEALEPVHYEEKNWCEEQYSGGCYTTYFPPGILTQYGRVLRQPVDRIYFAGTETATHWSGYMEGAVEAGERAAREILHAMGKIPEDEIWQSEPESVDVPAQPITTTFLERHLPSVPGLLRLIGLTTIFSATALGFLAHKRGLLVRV
Protocol: (2) Measurement of MAO-B Inhibitory Activity
The MAO-B inhibitory activity evaluation described below followed the protocol of MAO-Glo (registered trademark) Assay of Promega KK.
as §1, with “glycerol, 10% DMSO)” for “glycerol)”, “MAO-B” for “MAO-A”, “(16” for “(160”
The count of the MAO-B enzyme reaction mixture under compound non-addition conditions is indicated as control, and the count under compound non-addition and MAO-B enzyme non-addition conditions is indicated as blank.

**Q.** Which results are given for `O=C(Nc1ccc([C@@H]2C[C@H]2NCC2CC2)cc1)c1cccc(-n2cnnn2)c1` (relative stereo) [Example 100, N-(4-{trans-2-[(cyclopropylmethyl)-amino]cyclopropyl}-phenyl)-3-(1H-tetrazol-1-yl)benzamide]?
**A.** IC50 (human LSD1(171-852)): < 0.1 µM; IC50 (MAO-A): > 10 µM; IC50 (MAO-B): > 10 µM

**Q.** `O=C(Nc1ccc(C(=O)Nc2ccc([C@@H]3C[C@H]3NCC3CC3)cc2)cc1)c1ccccc1` (relative stereo) [Example 80, N-(4-{trans-2-[(cyclopropylmethyl)amino]cyclopropyl}phenyl)-4-[(phenylcarbonyl)amino]benzamide hydrochloride] was tested. Which IC50 (human LSD1(171-852)) did it give?
**A.** < 0.1 µM

**Q.** What about the IC50 (MAO-A) of the same molecule?
**A.** > 10 µM

**Q.** What about the IC50 (MAO-B) of the same molecule?
**A.** > 10 µM

**Q.** How did the IC50 (human LSD1(171-852)) turn out when `O=C(Nc1ccc([C@@H]2C[C@H]2NCc2ccccc2)cc1)c1cccc(N2CCCCC2)c1` (relative stereo) [Example 32, N-{4-[trans-2-(benzylamino)cyclopropyl]phenyl}-3-piperidin-1-ylbenzamide] was run?
**A.** < 0.1 µM

**Q.** And the IC50 (MAO-A)?
**A.** > 10 µM

**Q.** What about the IC50 (MAO-B) of the same molecule?
**A.** > 10 µM

**Q.** Which IC50 (human LSD1(171-852)) does the source give for `NS(=O)(=O)c1cccc(C(=O)Nc2ccc([C@@H]3C[C@H]3NCC3CC3)cc2)c1` (relative stereo) [Example 145, N-(4-{trans-2-[(cyclopropylmethyl)amino]cyclopropyl}phenyl)-3-sulfamoylbenzamide hydrochloride] here?
**A.** < 0.1 µM

**Q.** And the IC50 (MAO-A)?
**A.** > 10 µM

**Q.** What about the IC50 (MAO-B) of the same molecule?
**A.** > 10 µM

**Q.** `CC(C)(C)c1cccc(C(=O)Nc2ccc([C@@H]3C[C@H]3NCc3ccccc3)cc2)c1` (relative stereo) [Example 9, N-{4-[trans-2-(benzylamino)cyclopropyl]phenyl}-3-tert-butylbenzamide] was tested. Which IC50 (human LSD1(171-852)) did it give?
**A.** 0.28 µM

**Q.** What about the IC50 (MAO-A) of the same molecule?
**A.** > 10 µM

**Q.** What about the IC50 (MAO-B) of the same molecule?
**A.** > 10 µM

**Q.** `O=C(Nc1ccc([C@@H]2C[C@H]2NCC2CC2)cc1)c1ccc(OC(F)(F)F)cc1` (relative stereo) [Example 108, N-(4-{trans-2-[(cyclopropylmethyl)amino]cyclopropyl}phenyl)-4-(trifluoromethoxy)benzamide hydrochloride] was tested. Which IC50 (human LSD1(171-852)) did it give?
**A.** < 0.1 µM

**Q.** And the IC50 (MAO-A)?
**A.** > 10 µM

**Q.** What about the IC50 (MAO-B) of the same molecule?
**A.** > 10 µM

**Q.** With `O=C(Nc1ccc([C@@H]2C[C@H]2NCC2CC2)cc1)c1cc(-c2ccccc2)no1` (relative stereo) [Example 133, N-(4-{trans-2-[(cyclopropyl-methyl)amino]-cyclopropyl}-phenyl)-3-phenyl-1,2-oxazole-5-carboxamide] as the molecule, how does the IC50 (human LSD1(171-852)) read?
**A.** < 0.1 µM

**Q.** What about the IC50 (MAO-A) of the same molecule?
**A.** > 10 µM

**Q.** And the IC50 (MAO-B)?
**A.** > 10 µM

**Q.** What does the source list for `O=C(Nc1ccc([C@H]2C[C@@H]2NCC2CC2)cc1)c1ccc(-c2ccccc2)cc1` (single isomer, unassigned) [Example 165, N-(4-{(1R,2S) or (1S,2R)-2-[(cyclopropylmethyl)amino]cyclopropyl}phenyl)biphenyl-4-carboxamide hydrochloride]?
**A.** IC50 (MAO-A): > 10 µM; IC50 (MAO-B): > 10 µM

**Q.** How did the IC50 (human LSD1(171-852)) turn out when `O=C(Nc1ccc([C@@H]2C[C@H]2NCC2CC2)cc1)c1cc(C(F)(F)F)ccc1F` (relative stereo) [Example 73, N-(4-{trans-2-[(cyclopropylmethyl)amino]cyclopropyl}phenyl)-2-fluoro-5-(trifluoromethyl)benzamide hydrochloride] was run?
**A.** < 0.1 µM

**Q.** And the IC50 (MAO-B)?
**A.** 8.1 µM

**Q.** `Cn1cc(C(=O)Nc2ccc([C@@H]3C[C@H]3NCC3CC3)cc2)cn1` (relative stereo) [Example 163, N-(4-{trans-2-[(cyclopropylmethyl)amino]cyclopropyl}phenyl)-1-methyl-1H-pyrazole-4-carboxamide hydrochloride] was tested. Which IC50 (MAO-A) did it give?
**A.** > 10 µM

**Q.** And the IC50 (MAO-B)?
**A.** > 10 µM

**Q.** Which results are given for `O=C(Nc1ccc([C@@H]2C[C@H]2NCC2CC2)cc1)c1ccc(-c2ccccc2)cc1` (single isomer, unassigned) [Example 166, N-(4-{(1S,2R) or (1R,2S)-2-[(cyclopropylmethyl)amino]cyclopropyl}phenyl)biphenyl-4-carboxamide hydrochloride]?
**A.** IC50 (MAO-A): > 10 µM; IC50 (MAO-B): > 10 µM
